Test results: the NIST ThermoML archive (doi:10.1021/acs.jced.5b00105)

Test: xn = mol fraction of the nth substance listed
Conditions: for surface tension liquid-gas: Drop volume; for viscosity / mass density: 100 kPa, Liquid; for viscosity: Concentric cylinders viscometry; for mass density: Vibrating tube method

CCCCC1CCCCC1 [butylcyclohexane] + CC(C)CC(C)(C)C
Conditions | mass density [kg/m3] | surface tension liquid-gas [mN/m] | viscosity [mPa·s]
293.15 K, x1 = 0.0999 | 704.07 | – | 0.567
293.15 K, x1 = 0.1008 | – | 19.63 | –
293.15 K, x1 = 0.2 | – | 20.32 | –
293.15 K, x1 = 0.2002 | 715.88 | – | 0.623
293.15 K, x1 = 0.3001 | 727.35 | 21.02 | 0.679
293.15 K, x1 = 0.3996 | 738.44 | – | 0.744
293.15 K, x1 = 0.3999 | – | 21.75 | –
293.15 K, x1 = 0.5004 | – | 22.42 | –
293.15 K, x1 = 0.5005 | 749.38 | – | 0.816
293.15 K, x1 = 0.5999 | – | 23.17 | –
293.15 K, x1 = 0.6003 | 759.9 | – | 0.896
293.15 K, x1 = 0.6994 | 770.07 | – | 0.981
293.15 K, x1 = 0.6995 | – | 23.97 | –
293.15 K, x1 = 0.7998 | – | 24.87 | –
293.15 K, x1 = 0.8 | 780.14 | – | 1.078
293.15 K, x1 = 0.9 | – | 25.85 | –
293.15 K, x1 = 0.9001 | 789.89 | – | 1.184
293.15 K, x1 = 1 | 799.37 | 26.81 | 1.304
298.15 K, x1 = 0.0999 | 700.02 | – | 0.537
298.15 K, x1 = 0.1008 | – | 19 | –
298.15 K, x1 = 0.2 | – | 19.59 | –
298.15 K, x1 = 0.2002 | 711.89 | – | 0.588
298.15 K, x1 = 0.3001 | 723.39 | 20.24 | 0.64
298.15 K, x1 = 0.3996 | 734.52 | – | 0.698
298.15 K, x1 = 0.3999 | – | 20.9 | –
298.15 K, x1 = 0.5004 | – | 21.56 | –
298.15 K, x1 = 0.5005 | 745.49 | – | 0.763
298.15 K, x1 = 0.5999 | – | 22.29 | –
298.15 K, x1 = 0.6003 | 756.05 | – | 0.835
298.15 K, x1 = 0.6994 | 766.27 | – | 0.912
298.15 K, x1 = 0.6995 | – | 23.1 | –
298.15 K, x1 = 0.7998 | – | 23.95 | –
298.15 K, x1 = 0.8 | 776.35 | – | 0.998
298.15 K, x1 = 0.9 | – | 24.93 | –
298.15 K, x1 = 0.9001 | 786.12 | – | 1.093
298.15 K, x1 = 1 | 795.63 | 25.87 | 1.199
303.15 K, x1 = 0.0999 | 695.93 | 18.58 | 0.51
303.15 K, x1 = 0.2002 | 707.85 | 19.11 | 0.556
303.15 K, x1 = 0.3001 | 719.4 | 19.81 | 0.605
303.15 K, x1 = 0.3996 | 730.57 | 20.49 | 0.657
303.15 K, x1 = 0.5005 | 741.58 | 21.39 | 0.717
303.15 K, x1 = 0.6003 | 752.17 | 21.79 | 0.781
303.15 K, x1 = 0.6994 | 762.43 | 22.68 | 0.851
303.15 K, x1 = 0.8 | 772.54 | 23.51 | 0.929
303.15 K, x1 = 0.9001 | 782.34 | 24.53 | 1.014
303.15 K, x1 = 1 | 791.88 | 25.49 | 1.109
308.15 K, x1 = 0.0999 | – | – | 0.486
308.15 K, x1 = 0.1008 | – | 18.07 | –
308.15 K, x1 = 0.2 | – | 18.59 | –
308.15 K, x1 = 0.2002 | – | – | 0.528
308.15 K, x1 = 0.3001 | – | 19.17 | 0.573
308.15 K, x1 = 0.3996 | – | – | 0.621
308.15 K, x1 = 0.3999 | – | 19.76 | –
308.15 K, x1 = 0.5004 | – | 20.41 | –
308.15 K, x1 = 0.5005 | – | – | 0.675
308.15 K, x1 = 0.5999 | – | 21.12 | –
308.15 K, x1 = 0.6003 | – | – | 0.734
308.15 K, x1 = 0.6994 | – | – | 0.797
308.15 K, x1 = 0.6995 | – | 21.94 | –
308.15 K, x1 = 0.7998 | – | 22.79 | –
308.15 K, x1 = 0.8 | – | – | 0.868
308.15 K, x1 = 0.9 | – | 23.73 | –
308.15 K, x1 = 0.9001 | – | – | 0.945
308.15 K, x1 = 1 | – | 24.73 | 1.031
